From patent US20230416688A1, “CHEMICAL CULTURE SYSTEM AND USE THEREOF” (IREGENE THERAPEUTICS LTD, priority 2020, published 2023)

Key:
[1] = system: human neural cell line ReNcell VM; test: Cyquant cell viability assay, neural cell line, compound concentration screening; type: cell-based; details: only this component's concentration changed
Method: 6-well culture plates were coated with 50 μg/mL polylysine (SIGMA, P6407) and incubated for more than 3 h at 37° C. in a thermostat after plate laying; then further coated with 5 μg/mL Laminin (I2020, SIGMAALDRICH) and incubated for more than 3 h at 37° C. in a thermostat after plate laying. Mouse primary cells and the human neural cell line ReNcell VM were cultured, where mouse primary cell isolation was performed according to the method described in Nature Protocols. Volume 7, pages 1741-1754 (2012). Cell culture conditions were 37° C., 5% carbon dioxide (Panasonic, MCO-18AC), and cell adherent culture. The culture medium of the present invention, Neuralbasal+I0% FBS and N2B27 culture medium were used for comparison, respectively. Cell passage was digested with 0.05% trypsin/EDTA at 37° C. for 5 min, and the cell digestion was terminated with DMEM+10% FBS. […]
(§1) The Cyquant assay is used for quantitative detection of cell viability to compare the effects of different medium components on the physiological state of cells during long-term cell culture. […] Samples were taken on day 1, day 5, day 15 and day 30, and cell viability assays were performed using CyQuant Kit (Invitrogen, X12223) and operated according to the instruction manual, and using SpectraMax i3 Multi-Mode Microplate Reader (VWR, model ID3-STD) for data reading. […]

induced cortical neurons = test: Cyquant cell viability assay during induction of cortical neurons; type: cell-based, human; details: FIG. 6n; cortical neuron induction
Method: For cortical neuron differentiation, 6-well culture plates were coated with 50 μg/mL poly-Lysine (SIGMA, P6407) and incubated for more than 3 h in a 37° C. incubator after plate laying; then further coated with 3 μg/mL laminin (Laminin, 12020, SIGMAALDRICH) and incubated for more than 3 h at 37° C. after plate laying. The induced nerve stem cells obtained in Example 3 was re-inoculated into T25 culture plates at a rate of 1×105 per vial. Neural stem cells were cultured using NouvNeu culture medium at 37° C. and 5% CO2 (Panasonic, MCO-18AC), and the medium was replaced with fresh medium every three days until neurons formation on day 30. In the control experiment, N2B27 medium was used for neuron induction, and the specific operation steps were the same as above.
as §1, with “10,” for “5,”, “35,” for “30,”, “i3Multi-Mode” for “i3 Multi-Mode”, “Model” for “model”

Compound | use range of concentration in the medium (Cyquant) ([1]; FIG. 2b) [µg/mL] | use range of concentration in the medium (Cyquant) (induced cortical neurons) [µg/mL] | use range of concentration in the medium (Cyquant) ([1]; FIG. 2d) [µg/mL]
O=C[C@H](O)[C@@H](O)[C@@H](O)[C@H](O)CO [D(+)-galactose] | 5 to 25 | 5 to 25 | –
recombinant human transferrin: recombinant human transferrin, component of the NouvNeu medium | – | – | 0.05 to 0.2
